Assay results reported in patent publication US8377489B2, “Banana treatments” (Rohm and Haas Company, priority 2008, dated 2013).

Test system: Banana fruit
Assay: Ripening of bananas after 1-MCP dip of varied duration and ethylene exposure (Comparative Example 1)
Format: in vivo, Musa
Details: 20 microgram 1-MCP per liter with 0.6 ml/l NuFilm 17; for peel colour after 12 days: 12 days after exposure to ethylene
Description: The following Examples, the color of banana peels is rated according to a seven stage rating scale, published by Chiquita Brands International, Inc. (http://www.chiquita.com/chiquita/Discover/cbripen.asp): stage 1 (dark green); stage 2 (all light green); stage 3 (more green than yellow); stage 4 (more yellow than green); stage 5 (green tips and necks); stage 6 (all yellow; maybe light green necks, no green tips); stage 7 (yellow flecked with brown). Consumers generally prefer to eat bananas in stage 5 or stage 6.
Banana fruit with an age of 12 weeks, grown and treated in Costa Rica. The bananas were dipped (not sprayed). The solution of every 1-MCP treatment included 0.6 ml/l NuFilm 17® 96% (elastomer-forming additive, Miller Chemical and Fertilizer Co.). Control sample had no dip. Other samples were dipped in water solution in which powdered encapsulation complex of 1-MCP in alpha-cyclodextrin was added to water to give concentration of 20 microgram 1-MCP per liter. Bananas were dipped for zero time (in and out), 5 minutes, or 20 minutes.
After 1-MCP treatment, fruit were allowed to dry on racks after treatments before being repacked in the boxes. The boxes were stored at 14° C. for 7 days. The boxes were conditioned at 20-21° C. for 6 hours before being treated with a continuous stream of 100 microliter per liter ethylene in a treatment chamber at 20° C. by 24 hours. After ethylene treatment the boxes were kept at ambient conditions (20° C. and 95% RH). Bananas were inspected at 5, 7, 10, and 12 days after exposure to ethylene.
Complete randomized design was used, with 4 treatments and 2 boxes per treatment. Clusters from each treatment were evaluated every two days after ethylene treatment.

Question: Which ripening (dipped for 5 minutes) does the source give for CC1=CC1 [Treatment 1-MCP, 1-methylcyclopropene] here?
Answer: The ripening was “did not ripen normally”.

Question: What about the “peel colour after 12 days” value (dipped for 5 minutes) of the same compound?
Answer: Its value is “remained green”.

Question: And the ripening (dipped for 20 minutes)?
Answer: The ripening was “did not ripen normally”.

Question: And the “peel colour after 12 days” value (dipped for 20 minutes)?
Answer: The value was “remained green”.

Question: What about the “difference in ripening versus control bananas” value (dipped in and out quickly (zero time)) of the same compound?
Answer: Its value is “No significant difference”.
